From patent publication US10011627B2, “C-aryl glucoside derivative, preparation methods thereof, and medical applications thereof” (YOUNGENE THERAPEUTICS CO., LTD, priority 2013, dated 2018)
pIC50: −log10 of the molar value.

Assays:
SGLT2 = SGLT2 (Homo sapiens (Human), UniProt P31639); assay: Activity assay of SGLT2: [14C] methyl α-D-glucopyranoside uptake in SGLT2 transiently transferred HEK293 cells; type: cell-based; settings: 2 hours at 37° C.
Procedure: (§1) Activity Assay of SGLT1 and SGLT2:
(§2) The following method was used to determine the inhibitory activity of the compounds of the present invention on SGLT1 and SGLT2. The experimental method is summarized as follows:
(§3) SGLT1 and SGLT2 transiently transferred HEK293 cells (prepared according to the existing literature “Diabetes, 57, 1723-1729, 2008”, wherein cDNA of SGLT1 and SGLT2 was purchased from Origene company) were seeded in a 96-well plate. The density of the cells was 1-1.5×10^4. The cells were cultured at 37° C. and 5% CO2 for 48 hours, and then washed twice with 200 μL sodium-free buffer. 90 μL sodium-containing buffer of the test compound at different concentrations was added to the well. Each test compound was repeated in three wells for each concentration. The cells were cultured at 37° C. for 15 minutes, then 10 μL (in number 0.1 μCi [^14C]) Methyl α-D-glucopyranoside was added to each well of the 96-well plate. The cells were further cultured at 37° C. for 2 hours, then the supernatant was discarded. The cells were washed twice with pre-chilled sodium-free buffer and then dissolved in 100 μL NaOH (200 mM). 100 μL scintillation solution was added, and mixed well. Scintiloscope was used for the quantitative detection of ^14C.
(§4) IC50 values of the compounds of various examples were calculated from the […] at different concentrations.

SGLT1 = SGLT1 (Homo sapiens (Human), UniProt P13866); assay: Activity assay of SGLT1: [14C] methyl α-D-glucopyranoside uptake in SGLT1 transiently transferred HEK293 cells; type: cell-based; settings: for pIC50: SGLT1 transiently transferred HEK293 cells, [14C] methyl α-D-glucopyranoside, 2 hours at 37° C.; for inhibition of SGLT1 (conclusion in words): conclusion from the IC50 table
SGLT1, sequence (P13866 whole entry, species assumed): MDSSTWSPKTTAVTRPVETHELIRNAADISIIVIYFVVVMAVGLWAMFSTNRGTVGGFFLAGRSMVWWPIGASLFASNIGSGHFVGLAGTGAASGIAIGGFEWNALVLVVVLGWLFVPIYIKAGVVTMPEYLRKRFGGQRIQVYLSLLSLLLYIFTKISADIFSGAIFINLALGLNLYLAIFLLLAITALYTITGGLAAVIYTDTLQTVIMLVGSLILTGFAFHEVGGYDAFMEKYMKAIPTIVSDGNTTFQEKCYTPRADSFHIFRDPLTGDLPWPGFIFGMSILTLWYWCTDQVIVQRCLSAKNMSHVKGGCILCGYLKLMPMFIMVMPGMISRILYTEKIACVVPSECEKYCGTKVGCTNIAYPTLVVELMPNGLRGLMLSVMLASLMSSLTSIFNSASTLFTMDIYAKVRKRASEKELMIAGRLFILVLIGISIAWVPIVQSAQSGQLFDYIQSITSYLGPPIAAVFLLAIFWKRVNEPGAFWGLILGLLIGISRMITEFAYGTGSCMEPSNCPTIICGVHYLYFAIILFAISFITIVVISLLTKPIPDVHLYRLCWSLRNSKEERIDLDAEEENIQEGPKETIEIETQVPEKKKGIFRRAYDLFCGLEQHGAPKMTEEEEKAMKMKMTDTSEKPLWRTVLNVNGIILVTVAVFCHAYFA
Procedure: as §1, §2, §3, §4

SGLT2, sequence (P31639 whole entry, species assumed): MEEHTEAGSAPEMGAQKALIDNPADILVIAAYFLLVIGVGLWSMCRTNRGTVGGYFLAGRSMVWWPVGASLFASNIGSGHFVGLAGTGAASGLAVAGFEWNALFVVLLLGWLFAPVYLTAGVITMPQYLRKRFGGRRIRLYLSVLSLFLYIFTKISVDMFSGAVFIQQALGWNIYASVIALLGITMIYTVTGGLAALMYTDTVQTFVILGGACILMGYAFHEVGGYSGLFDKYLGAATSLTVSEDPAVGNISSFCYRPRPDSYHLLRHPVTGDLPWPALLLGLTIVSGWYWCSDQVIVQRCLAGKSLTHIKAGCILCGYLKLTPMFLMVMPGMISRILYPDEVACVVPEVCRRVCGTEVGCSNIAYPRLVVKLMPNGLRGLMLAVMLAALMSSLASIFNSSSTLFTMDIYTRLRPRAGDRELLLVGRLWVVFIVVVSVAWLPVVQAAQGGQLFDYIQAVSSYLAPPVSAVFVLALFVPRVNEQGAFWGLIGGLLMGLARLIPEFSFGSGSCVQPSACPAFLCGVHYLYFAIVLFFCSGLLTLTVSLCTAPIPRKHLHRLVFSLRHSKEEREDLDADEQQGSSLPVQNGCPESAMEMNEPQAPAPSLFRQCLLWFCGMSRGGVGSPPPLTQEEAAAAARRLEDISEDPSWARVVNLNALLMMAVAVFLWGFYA

| pIC50 (SGLT2) | pIC50 (SGLT1) | inhibition of SGLT1 (conclusion in words) (SGLT1) | Structure (SMILES) |
| --- | --- | --- | --- |
| 9.24 | 6.02 |  | OC[C@@]12CO[C@@](c3ccc(Cl)c(Cc4ccc5c(c4)OCCO5)c3)(O1)[C@H](O)[C@@H](O)[C@@H]2O [Example 1, (1S,2S,3S,4R,5S)-5-(4-chloro-3-((2,3-dihydrobenzo[b][1,4]dioxin-6-yl)methyl)phenyl)-1-(hydroxymethyl)-6,8-dioxabicyclo[3.2.1]octane-2,3,4-triol] |
| 8.44 | 7.80 | inhibited SGLT1 | OC[C@@]12CO[C@@](c3ccc(C4CC4)c(Cc4ccc5c(c4)OCCO5)c3)(O1)[C@H](O)[C@@H](O)[C@@H]2O [Example 2, (1S,2S,3S,4R,5S)-5-(4-cyclopropyl-3-((2,3-dihydrobenzo[b][1,4]dioxin-6-yl)methyl)phenyl)-1-(hydroxymethyl)-6,8-dioxabicyclo[3.2.1]octane-2,3,4-triol] |
| 7.70 | 5.59 |  | OC[C@H]1S[C@@H](c2cc3c(c(Cc4ccc5c(c4)OCCO5)c2)OCC3)[C@H](O)[C@@H](O)[C@@H]1O [Example 3, (2S,3R,4R,5S,6R)-2-(7-((2,3-dihydrobenzo[b][1,4]dioxin-6-yl)methyl)-2,3-dihydrobenzofuran-5-yl)-6-(hydroxymethyl)tetrahydro-2H-thiopyran-3,4,5-triol] |
| 6.88 | 7.05 | inhibited SGLT1 | Cc1ccc([C@@H]2S[C@H](CO)[C@@H](O)[C@H](O)[C@H]2O)cc1Cc1ccc2c(c1)OCCO2 [Example 4, (2S,3R,4R,5S,6R)-2-(3-((2,3-dihydrobenzo[b][1,4]dioxin-6-yl)methyl)-4-methylphenyl)-6-(hydroxymethyl)tetrahydro-2H-thiopyran-3,4,5-triol] |
| 8.74 | 7.76 | inhibited SGLT1 | CCCc1ccc([C@]23OC[C@](CO)(O2)[C@@H](O)[C@H](O)[C@H]3O)cc1Cc1ccc2c(c1)OCCO2 [Example 7, (1S,2S,3S,4R,5S)-5-(3-((2,3-dihydrobenzo[b][1,4]dioxin-6-yl)methyl)-4-propylphenyl)-1-(hydroxymethyl)-6,8-dioxabicyclo[3.2.1]octane-2,3,4-triol] |
| 6.23 | 8.92 |  | Cc1ccc([C@]23OC[C@](CO)(O2)[C@@H](O)[C@H](O)[C@H]3O)cc1Cc1ccc2c(c1)OCCO2 [Example 8, (1S,2S,3S,4R,5S)-5-(3-((2,3-dihydrobenzo[b][1,4]dioxin-6-yl)methyl)-4-methylphenyl)-1-(hydroxymethyl)-6,8-dioxabicyclo[3.2.1]octane-2,3,4-triol] |
| 8.83 | 7.78 | inhibited SGLT1 | CCc1ccc([C@]23OC[C@](CO)(O2)[C@@H](O)[C@H](O)[C@H]3O)cc1Cc1ccc2c(c1)OCCO2 [Example 9, (1S,2S,3S,4R,5S)-5-(3-((2,3-dihydrobenzo[b][1,4]dioxin-6-yl)methyl)-4-ethylphenyl)-1-(hydroxymethyl)-6,8-dioxabicyclo[3.2.1]octane-2,3,4-triol] |
